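Growth conditions: 96-well plates. Treatment: test compound, 48 hours, 5 concentrations. Analysis: linear interpolation between bracketing concentrations; unreached endpoints set to highest concentration. GI50 = concentration required for 50% inhibition of growth. TGI: concentration producing complete growth inhibition.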
Experiments:
Experiment in all cases: NCI anticancer screen, dose series, 48 h
LOX IMVI melanoma = tested on: LOX IMVI melanoma
SF-539 CNS = tested on: SF-539 CNS
NCI-H460 lung = tested on: NCI-H460 lung
786-0 renal = tested on: 786-0 renal
UO-31 renal = tested on: UO-31 renal
HCT-15 colon = tested on: HCT-15 colon
MDA-MB-435 = tested on: MDA-MB-435
SF-268 CNS = tested on: SF-268 CNS
PC-3 prostate = tested on: PC-3 prostate
OVCAR-8 ovarian = tested on: OVCAR-8 ovarian
SN12C renal = tested on: SN12C renal
MDA-MB-231 breast = tested on: MDA-MB-231 breast
RPMI-8226 leukemia = tested on: RPMI-8226 leukemia
SK-MEL-2 melanoma = tested on: SK-MEL-2 melanoma
NCI-H522 lung = tested on: NCI-H522 lung
UACC-62 melanoma = tested on: UACC-62 melanoma
ACHN renal = tested on: ACHN renal
HOP-92 NSCLC = tested on: HOP-92 NSCLC
CCRF-CEM leukemia = tested on: CCRF-CEM leukemia
HT29 colon = tested on: HT29 colon
SK-MEL-5 melanoma = tested on: SK-MEL-5 melanoma
SF-295 CNS = tested on: SF-295 CNS
SK-OV-3 ovarian = tested on: SK-OV-3 ovarian
KM12 colon = tested on: KM12 colon
OVCAR-3 ovarian = tested on: OVCAR-3 ovarian
A549 NSCLC = tested on: A549 NSCLC
DU-145 prostate = tested on: DU-145 prostate
HOP-62 NSCLC = tested on: HOP-62 NSCLC
SNB-19 CNS = tested on: SNB-19 CNS
HCC-2998 colon = tested on: HCC-2998 colon
MOLT-4 leukemia = tested on: MOLT-4 leukemia
COLO 205 colon = tested on: COLO 205 colon
SW-620 colon = tested on: SW-620 colon
UACC-257 melanoma = tested on: UACC-257 melanoma
MALME-3M melanoma = tested on: MALME-3M melanoma
OVCAR-5 ovarian = tested on: OVCAR-5 ovarian
RXF 393 renal = tested on: RXF 393 renal
HS 578T breast = tested on: HS 578T breast
EKVX NSCLC = tested on: EKVX NSCLC
U251 CNS = tested on: U251 CNS
SNB-75 CNS = tested on: SNB-75 CNS
TK-10 renal = tested on: TK-10 renal
K-562 leukemia = tested on: K-562 leukemia
IGROV1 ovarian = tested on: IGROV1 ovarian
HCT-116 colon = tested on: HCT-116 colon
CAKI-1 renal = tested on: CAKI-1 renal
NCI/ADR-RES ovarian = tested on: NCI/ADR-RES ovarian
NCI-H23 lung = tested on: NCI-H23 lung
MCF7 breast = tested on: MCF7 breast
SK-MEL-28 melanoma = tested on: SK-MEL-28 melanoma
NCI-H226 lung = tested on: NCI-H226 lung
M14 melanoma = tested on: M14 melanoma
BT-549 breast = tested on: BT-549 breast
T-47D breast = tested on: T-47D breast

SMILES: CC(C)C[C@H](NC(=O)[C@H]1O[C@@H]1C(=O)O)C(=O)NCCc1ccc(O)cc1
- GI50 (LOX IMVI melanoma): 74.1 µM
- TGI (LOX IMVI melanoma): > 100 µM
- GI50 (SF-539 CNS): > 100 µM
- TGI (SF-539 CNS): > 100 µM
- GI50 (NCI-H460 lung): > 100 µM
- TGI (NCI-H460 lung): > 100 µM
- GI50 (786-0 renal): > 100 µM
- TGI (786-0 renal): > 100 µM
- GI50 (UO-31 renal): 38.4 µM
- TGI (UO-31 renal): > 100 µM
- GI50 (HCT-15 colon): > 100 µM
- TGI (HCT-15 colon): > 100 µM
- GI50 (MDA-MB-435): > 100 µM
- TGI (MDA-MB-435): > 100 µM
- GI50 (SF-268 CNS): > 100 µM
- TGI (SF-268 CNS): > 100 µM
- GI50 (PC-3 prostate): > 100 µM
- TGI (PC-3 prostate): > 100 µM
- GI50 (OVCAR-8 ovarian): > 100 µM
- TGI (OVCAR-8 ovarian): > 100 µM
- GI50 (SN12C renal): > 100 µM
- TGI (SN12C renal): > 100 µM
- GI50 (MDA-MB-231 breast): > 100 µM
- TGI (MDA-MB-231 breast): > 100 µM
- GI50 (RPMI-8226 leukemia): > 100 µM
- TGI (RPMI-8226 leukemia): > 100 µM
- GI50 (SK-MEL-2 melanoma): > 100 µM
- TGI (SK-MEL-2 melanoma): > 100 µM
- GI50 (NCI-H522 lung): > 100 µM
- TGI (NCI-H522 lung): > 100 µM
- GI50 (UACC-62 melanoma): > 100 µM
- TGI (UACC-62 melanoma): > 100 µM
- GI50 (ACHN renal): > 100 µM
- TGI (ACHN renal): > 100 µM
- GI50 (HOP-92 NSCLC): > 100 µM
- TGI (HOP-92 NSCLC): > 100 µM
- GI50 (CCRF-CEM leukemia): > 100 µM
- TGI (CCRF-CEM leukemia): > 100 µM
- GI50 (HT29 colon): > 100 µM
- TGI (HT29 colon): > 100 µM
- GI50 (SK-MEL-5 melanoma): > 100 µM
- TGI (SK-MEL-5 melanoma): > 100 µM
- GI50 (SF-295 CNS): > 100 µM
- TGI (SF-295 CNS): > 100 µM
- GI50 (SK-OV-3 ovarian): > 100 µM
- TGI (SK-OV-3 ovarian): > 100 µM
- GI50 (KM12 colon): > 100 µM
- TGI (KM12 colon): > 100 µM
- GI50 (OVCAR-3 ovarian): > 100 µM
- TGI (OVCAR-3 ovarian): > 100 µM
- GI50 (A549 NSCLC): > 100 µM
- TGI (A549 NSCLC): > 100 µM
- GI50 (DU-145 prostate): > 100 µM
- TGI (DU-145 prostate): > 100 µM
- GI50 (HOP-62 NSCLC): > 100 µM
- TGI (HOP-62 NSCLC): > 100 µM
- GI50 (SNB-19 CNS): > 100 µM
- TGI (SNB-19 CNS): > 100 µM
- GI50 (HCC-2998 colon): > 100 µM
- TGI (HCC-2998 colon): > 100 µM
- GI50 (MOLT-4 leukemia): > 100 µM
- TGI (MOLT-4 leukemia): > 100 µM
- GI50 (COLO 205 colon): > 100 µM
- TGI (COLO 205 colon): > 100 µM
- GI50 (SW-620 colon): > 100 µM
- TGI (SW-620 colon): > 100 µM
- GI50 (UACC-257 melanoma): > 100 µM
- TGI (UACC-257 melanoma): > 100 µM
- GI50 (MALME-3M melanoma): > 100 µM
- TGI (MALME-3M melanoma): > 100 µM
- GI50 (OVCAR-5 ovarian): > 100 µM
- TGI (OVCAR-5 ovarian): > 100 µM
- GI50 (RXF 393 renal): > 100 µM
- TGI (RXF 393 renal): > 100 µM
- GI50 (HS 578T breast): > 100 µM
- TGI (HS 578T breast): > 100 µM
- GI50 (EKVX NSCLC): > 100 µM
- TGI (EKVX NSCLC): > 100 µM
- GI50 (U251 CNS): > 100 µM
- TGI (U251 CNS): > 100 µM
- GI50 (SNB-75 CNS): > 100 µM
- TGI (SNB-75 CNS): > 100 µM
- GI50 (TK-10 renal): > 100 µM
- TGI (TK-10 renal): > 100 µM
- GI50 (K-562 leukemia): > 100 µM
- TGI (K-562 leukemia): > 100 µM
- GI50 (IGROV1 ovarian): > 100 µM
- TGI (IGROV1 ovarian): > 100 µM
- GI50 (HCT-116 colon): > 100 µM
- TGI (HCT-116 colon): > 100 µM
- GI50 (CAKI-1 renal): > 100 µM
- TGI (CAKI-1 renal): > 100 µM
- GI50 (NCI/ADR-RES ovarian): > 100 µM
- TGI (NCI/ADR-RES ovarian): > 100 µM
- GI50 (NCI-H23 lung): > 100 µM
- TGI (NCI-H23 lung): > 100 µM
- GI50 (MCF7 breast): > 100 µM
- TGI (MCF7 breast): > 100 µM
- GI50 (SK-MEL-28 melanoma): > 100 µM
- TGI (SK-MEL-28 melanoma): > 100 µM
- GI50 (NCI-H226 lung): > 100 µM
- TGI (NCI-H226 lung): > 100 µM
- GI50 (M14 melanoma): > 100 µM
- TGI (M14 melanoma): > 100 µM
- GI50 (BT-549 breast): > 100 µM
- TGI (BT-549 breast): > 100 µM
- GI50 (T-47D breast): > 100 µM
- TGI (T-47D breast): > 100 µM

From PubChem BioAssay (NCI)
